Assay results as given in publication PMC12523303, “Multi-Fused S,N-Heterocyclic Compounds for Targeting α-Synuclein Aggregates” (Cells, 2025).
Like-named read-outs stand apart in the source and are kept apart here.

Legend:
[1] = test system: DLB tissue; parameters: method as in PMID 38843838; conditions: cited from earlier work
[2] = biological target: T1, α-synuclein (α-syn) aggregates in PD brain homogenates (Homo sapiens, UniProt P37840); assay: In vitro competition (Ki) assay vs [3H]asyn-44 in PD brain homogenates; format: binding; conditions: 1 nM [3H]asyn-44
T1 construct: Anterior cingulate cortex tissue from a Parkinson’s disease (PD) case; tissue Banner Sun Health Research Institute (Dr. Thomas Beach); host or cells: post-mortem human PD anterior cingulate cortex homogenate
Procedure: Anterior cingulate cortex tissue from a Parkinson’s disease (PD) case was generously provided by Dr. Thomas Beach at the Banner Sun Health Research Institute in Arizona, USA. […] Preparation of the frozen blocks for binding assays followed previously established protocols.
The equilibrium inhibition constants (Ki) for the unlabelled compounds were measured against [^3H]asyn-44 using our previously reported procedure. For these assays, frozen aliquots of homogenized human brain tissue (stored at −80 °C) were used. Homogenates were prepared at 10 mg/mL in phosphate-buffered saline, then diluted with 50 mM Tris buffer (pH 7.0) to a working concentration of 1 mg/mL.
Unlabeled competitor compounds were initially dissolved in DMSO at 400 μM, then diluted with Tris buffer to 20 μM, resulting in a 5% DMSO concentration. A serial dilution series (ranging from 6 μM to 4 nM) was prepared in the same 5% DMSO/Tris buffer solution to maintain consistent solvent conditions throughout the assay.
To perform the binding assay, 50 μL of the appropriately diluted competitor solution was mixed with 50 μL of [^3H]asyn-44 (1 nM final concentration) and 800 μL of Tris buffer containing 20% ethanol and 0.1% bovine serum albumin (BSA). Then, 100 μL of the 1 mg/mL brain homogenate was added, bringing the final tissue concentration to 100 μg/mL. The reaction mixtures were incubated at room temperature for 60 min before filtration through Whatman GF/B glass fibre filters using a Brandel M-24R cell harvester (Gaithersburg, MD, USA). Filters were washed three times with 3 mL of Tris buffer containing 20% ethanol and 0.1% BSA.
After washing, retained radioactivity was measured using CytoScint-ES scintillation fluid following thorough vortexing. Specific binding was calculated by correcting for nonspecific binding (as described later), and the amount of bound radioligand was derived from the filter-associated radioactivity and the molar activity of the tritiated compound.

[3] = biological target: T1, α-synuclein (α-syn) aggregates in PD brain homogenates; assay: Two point screening assay (30 nM and 300 nM) vs [3H]asyn-44 in human PD brain homogenates; format: binding; conditions: for remaining activity at 0.03 µM: 30 nM competitor; for remaining activity at 0.3 µM: 300 nM competitor
Procedure: Screening assays for the test compounds were performed at two concentrations—30 nM and 300 nM—using unlabelled competitors in human PD brain homogenates against [^3H]asyn-44 as previously described. […] Each assay was conducted in triplicate for both concentrations to ensure reproducibility and statistical reliability.

[4] = Metabolic stability in human liver microsomes; format: in vitro ADME; conditions: for % disappearance at 5 minutes relative to time zero / % disappearance at 15 minutes relative to time zero / % disappearance at 30 minutes relative to time zero / Clearance Category / remaining at 5 min, 1 μM / remaining at 0.5 h, 1 μM: human liver microsomes; for Clearance Category: as per Cyprotex Website; for half-life at 1 μM: human, pH 7.4, human liver microsomes (h-MR); for half-life at 1 μM / remaining at 5 min, 1 μM / remaining at 0.5 h, 1 μM: pooled human liver microsomes; for remaining at 5 min, 1 μM / remaining at 0.5 h, 1 μM: pH 7.4; for % disappearance at 30 minutes relative to time zero / remaining at 0.5 h, 1 μM: 30 min
Procedure: Metabolic stability assays were conducted using pooled human liver microsomes (HLMs) to evaluate the rate of in vitro metabolic degradation of the test compound. Incubations were carried out in duplicate (n = 2) at a final compound concentration of 1 μM. The protein concentration of the microsomal suspension was adjusted to 0.5 mg/mL using phosphate buffer (100 mM, pH 7.4). Reactions were initiated by the addition of NADPH (final concentration 1 mM) and incubated at 37 °C. Aliquots were taken at four time points: 0, 5, 15, and 30 min. Each reaction was quenched with ice-cold acetonitrile containing internal standard, followed by centrifugation to pellet proteins. Supernatants were analyzed using a validated LC-MS/MS method to determine the concentration of the parent compound at each time point. […] Metabolic stability was assessed by calculating the percentage of the parent compound remaining at each time point. The elimination rate constant (k), half-life (t1/2), and intrinsic clearance (CLint) were derived from the natural log-transformed concentration vs. time data, assuming first-order kinetics.

[5] = biological target: T2, MDR1 (Homo sapiens, UniProt P08183); assay: Bidirectional transport in MDR1-transfected MDCK cell monolayers; format: in vitro ADME; conditions: dog; for recovery at 2 μM: MDCK-MDR1, MDR1-MDCK permeability assay; for Papp A→B at 2 μM / Papp B→A at 2 μM: MDCK-MDR1; for Papp A→B at 2 μM: apical-to-basolateral, read-out: A→B apparent permeability; for Papp B→A at 2 μM: basolateral-to-apical, read-out: B→A apparent permeability
T2 construct: host or cells: MDCK cells
T2 sequence (P08183 whole entry): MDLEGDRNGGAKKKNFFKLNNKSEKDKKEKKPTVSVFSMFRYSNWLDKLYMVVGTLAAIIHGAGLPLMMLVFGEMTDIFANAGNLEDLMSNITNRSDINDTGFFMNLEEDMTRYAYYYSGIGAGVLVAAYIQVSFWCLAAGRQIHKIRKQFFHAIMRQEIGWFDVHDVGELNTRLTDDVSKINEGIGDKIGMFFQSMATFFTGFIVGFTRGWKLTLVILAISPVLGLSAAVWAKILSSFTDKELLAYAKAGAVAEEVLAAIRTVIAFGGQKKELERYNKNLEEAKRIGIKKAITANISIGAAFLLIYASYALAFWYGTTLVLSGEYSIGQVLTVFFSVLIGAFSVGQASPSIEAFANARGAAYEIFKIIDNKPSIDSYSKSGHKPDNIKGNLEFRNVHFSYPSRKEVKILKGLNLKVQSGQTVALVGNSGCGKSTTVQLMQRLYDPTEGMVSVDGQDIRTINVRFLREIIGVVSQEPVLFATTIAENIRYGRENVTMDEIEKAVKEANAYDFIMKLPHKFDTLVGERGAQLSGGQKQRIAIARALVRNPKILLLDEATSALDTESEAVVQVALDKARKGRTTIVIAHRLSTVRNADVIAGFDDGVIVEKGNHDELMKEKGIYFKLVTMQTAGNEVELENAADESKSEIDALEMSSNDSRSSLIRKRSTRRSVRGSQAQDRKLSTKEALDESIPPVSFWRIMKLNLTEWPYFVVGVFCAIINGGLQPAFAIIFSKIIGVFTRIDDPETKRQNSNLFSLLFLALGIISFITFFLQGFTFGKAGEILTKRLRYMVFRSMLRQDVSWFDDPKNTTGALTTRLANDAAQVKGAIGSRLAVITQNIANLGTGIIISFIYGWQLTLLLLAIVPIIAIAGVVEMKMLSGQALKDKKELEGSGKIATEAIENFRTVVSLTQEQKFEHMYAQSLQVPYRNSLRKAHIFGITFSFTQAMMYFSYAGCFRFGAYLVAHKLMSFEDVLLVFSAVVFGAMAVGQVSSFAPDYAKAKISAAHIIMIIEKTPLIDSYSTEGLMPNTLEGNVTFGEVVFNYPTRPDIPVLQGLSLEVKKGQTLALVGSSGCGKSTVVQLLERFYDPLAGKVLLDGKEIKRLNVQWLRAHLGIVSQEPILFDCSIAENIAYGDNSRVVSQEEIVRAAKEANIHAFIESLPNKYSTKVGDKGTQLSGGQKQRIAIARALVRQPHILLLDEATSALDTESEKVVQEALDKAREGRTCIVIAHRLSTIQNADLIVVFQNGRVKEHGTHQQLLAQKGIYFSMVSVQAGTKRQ
Procedure: (§1) MDR1-transfected MDCK cell monolayers, cultured for 5 days and obtained from the Netherlands Cancer Institute, were used for the in vitro bidirectional transport studies. Cells were maintained in Dulbecco’s Modified Eagle Medium (DMEM) supplemented with 10% fetal bovine serum (FBS) and 1% penicillin–streptomycin. They were subcultured every other day at a split ratio of 1:3 to 1:5. For transport experiments, cells were seeded onto polycarbonate Transwell® filter inserts (Millipore) in 24-well plates at a density of 500,000 cells per well. After 24 h, the medium was replaced, and the cells were cultured for an additional 4 days to allow tight junction formation before initiating the transport assays. Transport studies were performed in duplicate using a 2 μM concentration of test compound, in both apical-to-basolateral (A→B) and basolateral-to-apical (B→A) directions. The apparent permeability coefficient (P_app) was calculated using the following equation: Papp (cm/s) = (Vr/C0) (1/S) (dC/dt)
(§2) • P_app is the apparent permeability, • V_r is the volume of the receiver chamber, • C0 is the initial concentration in the donor chamber, • S is the surface area of the cell monolayer (0.7 cm^2; for a 24-well insert), • dC/dt is the rate of appearance of the compound in the receiver chamber.
(§3) The efflux ratio was calculated as: (1) Efflux ratio=Papp B−A/Papp A−B
(§4) Bioanalysis was carried out using LC-MS/MS.

[6] = biological target: T3, MDR1-transfected MDCK cells (Homo sapiens, UniProt P08183); assay: as above; format: in vitro ADME; conditions: MDR1-MDCK
T3 construct: host or cells: MDCK cells
T3 sequence (P08183 whole entry): as above
Procedure: as §1, §2, §3, §4

[7] = biological target: α-syn fibrils; parameters: method as in PMID 40256311; conditions: cited from earlier work
[8] = biological target: PD brain tissue; parameters: method as in PMID 40256311; conditions: cited from earlier work
[9] = biological target: α-syn fibrils; parameters: method as in PMID 37421950; conditions: cited from earlier work
[10] = biological target: T4, [^3H]PiB binding in post-mortem Alzheimer’s disease (AD) brain tissue (Homo sapiens, UniProt P05067); assay: Competition binding vs [3H]PiB in post-mortem AD brain tissue
T4 construct: from tissue; host or cells: post-mortem AD brain tissue
T4 sequence (P05067 672-713 limits assumed): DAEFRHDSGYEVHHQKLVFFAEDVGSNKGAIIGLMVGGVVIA
From the text: (§5) We assessed the binding affinity of LMD-022 using a radioligand competition binding assay in post-mortem PD brain tissues. […] To evaluate potential off-target binding in AD brain tissues, we conducted additional binding assays using a panel of AD-related radioligands, including [^3H]PiB, [^3H]MK-6240, [^3H]Z-2340, and [^3H]PI-2620. […] Our future work will aim to optimize chemical yields of lead compounds, including LMD-022, and carry out α-syn fibril seed amplification assays or immunohistochemical co-localization with pathologic α-syn to verify target engagement as well as radiolabel lead molecules for in vivo PET imaging studies.

[11] = biological target: [^3H]MK-6240 binding in post-mortem Alzheimer’s disease (AD) brain tissue (Homo sapiens, UniProt P10636); assay: Competition binding vs [3H]MK-6240 in post-mortem AD brain tissue
Sequence of [^3H]MK-6240 binding in post-mortem Alzheimer’s disease (AD) brain tissue (P10636 623-758 limits assumed): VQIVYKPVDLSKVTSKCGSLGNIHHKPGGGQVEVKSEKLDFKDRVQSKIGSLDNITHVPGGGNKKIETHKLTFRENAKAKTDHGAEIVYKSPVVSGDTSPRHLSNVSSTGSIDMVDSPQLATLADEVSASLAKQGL
From the text: as §5

[12] = biological target: [^3H]Z-2340 binding in post-mortem Alzheimer’s disease (AD) brain tissue; assay: Competition binding vs [3H]Z-2340 in post-mortem AD brain tissue; parameters: species or system human
From the text: as §5

[13] = biological target: [^3H]PI-2620 binding in post-mortem Alzheimer’s disease (AD) brain tissue (Homo sapiens, UniProt P10636); assay: Competition binding vs [3H]PI-2620 in post-mortem AD brain tissue
Sequence of [^3H]PI-2620 binding in post-mortem Alzheimer’s disease (AD) brain tissue (P10636 623-695 limits assumed): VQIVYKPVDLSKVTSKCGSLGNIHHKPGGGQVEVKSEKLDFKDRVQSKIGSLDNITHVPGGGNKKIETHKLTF
From the text: as §5

[14] = biological target: T1, α-synuclein (α-syn) aggregates in PD brain homogenates; parameters: method as in PMID 38354298; conditions: parent ligand, value printed in Figure 2; cited from earlier work
[15] = biological target: post-mortem PD brain tissue; parameters: method as in PMID 38354298; conditions: cited from earlier work
[16] = A→B, read-out: Calculated recovery, A→B direction
[17] = B→A, read-out: Calculated recovery, B→A direction

SMILES	Ki [2]	remaining activity at 0.03 µM [3]	remaining activity at 0.3 µM [3]	% disappearance at 5 minutes relative to time zero [4]	% disappearance at 15 minutes relative to time zero [4]	% disappearance at 30 minutes relative to time zero [4]	Clearance Category [4]	half-life at 1 μM [4]	remaining at 5 min, 1 μM [4]	remaining at 0.5 h, 1 μM [4]	also measured
CNc1ccc(C#C/C=C/c2nc3ccc(OCC(O)C[18F])cc3s2)cn1 (stereo not shown) [[^18F]C05-05]											IC50 [1]: 1.5 nM
CC(C)NCC(O)COc1cccc2ccccc12 (stereo not shown) [Propranolol]											recovery at 2 μM [5, 16]: 95%; recovery at 2 μM [5, 17]: 116%; Papp A→B at 2 μM [5]: 9.28 ×10⁻⁶ cm/s; Papp B→A at 2 μM [5]: 8.03 ×10⁻⁶ cm/s; Efflux Category [6]: Not a substrate; Permeability Category [6]: Medium
[11CH3]Oc1ccc(NC(=O)c2cnc(N3CCN(c4ccccn4)CC3)nc2N)cc1 [[^11C]M503-1619]											Ki [7]: 6.5 nM; Kd [8]: 1.5 nM
Cc1cc2nc(/C=C/c3ccc(O)c(Br)c3)sc2cc1N(C)CCOCC[18F] [[^18F]F0502B]											Kd [9]: 11 nM
C[C@H]1O[C@@H](O[C@H]2[C@@H](O)C[C@H](O[C@H]3[C@@H](O)C[C@H](O[C@H]4CC[C@@]5(C)[C@H](CC[C@@H]6[C@@H]5C[C@@H](O)[C@]5(C)[C@@H](C7=CC(=O)OC7)CC[C@]65O)C4)O[C@@H]3C)O[C@@H]2C)C[C@H](O)[C@@H]1O [Digoxin]											recovery at 2 μM [5, 16]: 79.7%; recovery at 2 μM [5, 17]: 108%; Papp A→B at 2 μM [5]: 1.65 ×10⁻⁶ cm/s; Efflux Category [6]: Substrate of efflux; Permeability Category [6]: Low
F[C@@H]1CCN(c2ccc(-c3ccc4sc(-c5cccnc5)cc4n3)cn2)C1 [Asyn-44]											Ki [14]: 9 nM; Kd [15]: 1.85 nM

Now from value to compound, other results behind:

Ki [2]	remaining activity at 0.03 µM [3]	remaining activity at 0.3 µM [3]	% disappearance at 5 minutes relative to time zero [4]	% disappearance at 15 minutes relative to time zero [4]	% disappearance at 30 minutes relative to time zero [4]	Clearance Category [4]	half-life at 1 μM [4]	remaining at 5 min, 1 μM [4]	remaining at 0.5 h, 1 μM [4]	SMILES	also measured
50 nM	38%	25%	46.7%	79.2%	95.0%	High	7.05 min	53.3%	5.02%	F[C@@H]1CCN(c2ccc(-n3cc4sc(-c5cccnc5)cc4n3)cn2)C1 [LMD-032]	
12 nM	53%	2%	60.2%	88.1%	95.7%	High	6.81 min	39.6%	4.32%	F[C@@H]1CCN(c2ccc(-c3ccc4sc(-c5cncs5)cc4n3)cn2)C1 [LMD-006]	
9.1 nM	38%	4%	54.3%	88.3%	96.3%	High	6.37 min	45.7%	3.71%	F[C@@H]1CCN(c2cnc(-c3csc4ccc(-c5cccnc5)nc34)cn2)C1 [LMD-044]	
16 nM	40%	15%	7.6%	17.8%	24.6%	Moderate	75 min	92.4%	75.4%	O=C1NCc2nc(-c3cnc(N4CC[C@@H](F)C4)cn3)ccc21 [LMD-022]	t1/2 ([4]; human liver microsomes (h-MR)): 75.3 min; recovery at 2 μM [5, 16]: 61.9%; recovery at 2 μM [5, 17]: 120%; Papp A→B at 2 μM [5]: 40.6 ×10⁻⁶ cm/s; Papp B→A at 2 μM [5]: 37.6 ×10⁻⁶ cm/s; efflux ratio at 2 μM ([5]; MDR1-MDCK, read-out: Efflux Ratio (B→A/A→B)): 0.93; Efflux Category [6]: Not a substrate; Permeability Category [6]: High; Ki [10]: > 10000 nM; Ki [11]: > 10000 nM; Ki [12]: > 10000 nM; Ki [13]: 2760 nM
6 nM	27%	2%	60.3%	82.8%	94.4%	High	7.6 min	39.7%	5.61%	F[C@@H]1CCN(c2cc(-n3cc4sc(-c5cccnc5)cc4n3)ncn2)C1 [LMD-052]	
